Experimental data published in patent publication US11845760B2, “PRMT5 inhibitors” (AMGEN INC., priority 2020, dated 2023).
Read-outs that look alike come from different tables or passages of the source.

Columns and labels:
[1] = system: HCT116 MTAP null cells; experiment: HCT116 MTAP null cell line proliferation (CellTiter-Glo cell viability, 6 days); assay type: cell-based; conditions: HCT116 MTAP null cells, 6 days of treatment, CellTiter-Glo cell viability, read-out: HCT-116 MTAP null IC50
Method in brief: (§1)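 Isogenic HCT116 pair (both MTAP alleles knocked out vs parent) in RPMI 1640 + 10% FBS, seeded overnight at 37° C, 5% CO2, then exposed 6 days to 8- or 9-point 1:3 dilutions from 1 or 10 μM. CellTiter-Glo luminescence; IC50 from sigmoidal fit, Hill slope fixed −1, top 100%, or 4-parameter logistic.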

[2] = system: HCT116 WT cells; experiment: HCT116 WT cell line proliferation (CellTiter-Glo cell viability, 6 days); assay type: cell-based; conditions: HCT116 WT (parent) cells, 6 days of treatment, CellTiter-Glo cell viability, read-out: HCT-116 WT IC50
Method in brief: as §1

| IC50 ([1]; HCT116-MTAP null, 144 h) [nM] | IC50 ([2]; Homo sapiens, HCT-116, 144 h) [nM] | IC50 [1] [nM] | IC50 [2] [nM] | Compound |
| --- | --- | --- | --- | --- |
| > 10000 | > 10000 |  |  | Nc1nc2cnc(C(=O)N3CCC(F)(F)C[C@H]3c3ccc(OC(F)(F)F)cc3)cc2c2c1COC2 (single isomer, unassigned) [Example 601] |
| 149 | 10000 |  |  | Nc1nc2cnc(C(=O)N3CCOC[C@@H]3c3c(F)cc(Br)cc3F)cc2c2c1COC2 (single isomer, unassigned) [Example 602] |
| 420 | 10200 |  |  | Nc1nc2ccc(C(=O)N3CCOC[C@@H]3c3ccc(CC(F)(F)F)cc3)cc2c2c1COC2 (single isomer, unassigned) [Example 603] |
| 87 | 7270 |  |  | Nc1nc2cnc(C(=O)N3CCOC[C@@H]3c3ccc(CC(F)(F)F)cc3)cc2c2c1COC2 (single isomer, unassigned) [Example 604] |
| > 1000 | > 10000 |  |  | Cc1ccc([C@@H]2COCCN2C(=O)c2ccc3nc(N)c4c(c3c2)COC4)cn1 (single isomer, unassigned) [Example 605] |
| 1030 | > 10000 |  |  | Cc1ccc([C@H]2COCCN2C(=O)c2ccc3nc(N)c4c(c3c2)COC4)cn1 (single isomer, unassigned) [Example 606] |
| > 1000 | > 10000 |  |  | Cc1ccc([C@H]2COCCN2C(=O)c2cc3c4c(c(N)nc3cn2)COC4)cn1 (single isomer, unassigned) [Example 607] |
| > 1000 | > 10000 |  |  | Cc1ccc([C@@H]2COCCN2C(=O)c2cc3c4c(c(N)nc3cn2)COC4)cn1 (single isomer, unassigned) [Example 608] |
| 207 | 9110 |  |  | Nc1nc2ccc(C(=O)N3CCOC[C@@H]3c3ccc(C(F)(F)F)nc3)cc2c2c1COC2 (single isomer, unassigned) [Example 609] |
| > 1000 | > 10000 |  |  | Nc1nc2ccc(C(=O)N3CCOC[C@H]3c3ccc(C(F)(F)F)nc3)cc2c2c1COC2 (single isomer, unassigned) [Example 610] |
| > 1000 | > 10000 |  |  | Nc1nc2cnc(C(=O)N3CCOC[C@H]3c3cnc(C(F)(F)F)nc3)cc2c2c1COC2 (single isomer, unassigned) [Example 611] |
| > 1000 | > 10000 |  |  | Nc1nc2cnc(C(=O)N3CCOC[C@@H]3c3cnc(C(F)(F)F)nc3)cc2c2c1COC2 (single isomer, unassigned) [Example 612] |
| 1830 | > 10000 |  |  | Nc1nc2cnc(C(=O)N3CCOC[C@@H]3c3cnc(C(F)(F)F)cn3)cc2c2c1COC2 (single isomer, unassigned) [Example 613] |
|  |  | > 10000 | > 10000 | Nc1nc2cnc(C(=O)N3CCOC[C@H]3c3cnc(C(F)(F)F)cn3)cc2c2c1COC2 (single isomer, unassigned) [Example 614] |
| 241 | 3460 |  |  | Nc1nc2cnc(C(=O)N3CCOC[C@@H]3c3cc(C(F)(F)F)cs3)cc2c2c1COC2 (single isomer, unassigned) [Example 615] |
| 3240 | > 10000 |  |  | Nc1nc2cnc(C(=O)N3CCOC[C@H]3c3ccc(C(F)(F)F)s3)cc2c2c1COC2 (single isomer, unassigned) [Example 616] |
| 228 | 5730 |  |  | Nc1nc2cnc(C(=O)N3CCOC[C@@H]3c3ccc(C(F)(F)F)s3)cc2c2c1COC2 (single isomer, unassigned) [Example 617] |
| 300 | > 10000 |  |  | Nc1nc2cnc(C(=O)N3CCOC[C@@H]3c3cc(Cl)c(Cl)s3)cc2c2c1COC2 (single isomer, unassigned) [Example 618] |

| IC50 ([1]; HCT116-MTAP null, 144 h) [nM] | IC50 ([2]; Homo sapiens, HCT-116, 144 h) [nM] | IC50 [1] [nM] | IC50 [2] [nM] | Compound |
| --- | --- | --- | --- | --- |
| 49 | 1980 |  |  | C[C@H]1OCc2c1c(N)nc1cnc(C(=O)N3CCOC[C@@H]3c3ccc(OC(F)(F)F)cc3)cc21 (single isomer, unassigned) [Example 619] |
| 634 | 4230 |  |  | Cn1ncc2c(N)nc3cc(F)c(C(=O)N4C[C@@H]5C[C@]5(c5ccc(C(F)(F)F)cc5)C4)cc3c21 (single isomer, unassigned) [Example 620] |
| 175 | 4410 |  |  | Cn1ncc2c(N)nc3cc(F)c(C(=O)N4C[C@H]5C[C@@]5(c5ccc(C(F)(F)F)cc5)C4)cc3c21 (single isomer, unassigned) [Example 621] |
| 239 | 7950 |  |  | Nc1nc2ccc(C(=O)N3CCOC[C@@H]3c3ncc(Br)cc3F)cc2c2c1COC2 (single isomer, unassigned) [Example 622] |
| > 1000 | > 10000 |  |  | Nc1nc2ccc(C(=O)N3CCOCC3c3ncccn3)cc2c2c1COC2 (stereo not drawn) [Example 300, (4-amino-1,3-dihydrofuro[3,4-c]quinolin-8-yl)(3-(pyrimidin-2-yl)morpholino)methanone] |
| 91 | 2690 |  |  | Nc1nc2ccc(C(=O)N3CCOC[C@@H]3c3ccc(OC(F)(F)F)cc3)cc2c2c1COC2 [Example 335, (4-amino-1,3-dihydrofuro[3,4-c]quinolin-8-yl)-[(3S)-3-[4-(trifluoromethoxy)phenyl]morpholin-4-yl]methanone] |
| 39 | 1620 |  |  | C[C@H]1OCc2c1c(N)nc1ccc(C(=O)N3CCOC[C@@H]3c3ccc(C(F)(F)C(F)(F)F)cc3)cc21 [Example 336, ((3R)-4-amino-3-methyl-1,3-dihydrofuro[3,4-c]quinolin-8-yl)((3S)-3-(4-(pentafluoroethyl)phenyl)-4-morpholinyl)methanone] |
| 340 | 15400 |  |  | Cn1ncc2c3cc(C(=O)N4CCOC[C@@H]4c4ccc(OC(F)F)cn4)ccc3nc(N)c21 [Example 369, (4-amino-3-methyl-3H-pyrazolo[3,4-c]quinolin-8-yl)((3S)-3-(5-(difluoromethoxy)-2-pyridinyl)-4-morpholinyl)methanone] |
| 30 | 2020 |  |  | C[C@@H]1COC[C@H](c2ccc(C(F)(F)F)cn2)N1C(=O)c1ccc2nc(N)c3c(cnn3C)c2c1 [Example 370, (4-amino-3-methyl-3H-pyrazolo[3,4-c]quinolin-8-yl)((3R,5S)-3-methyl-5-(5-(trifluoromethyl)-2-pyridinyl)-4-morpholinyl)methanone] |
| 22 | 707 |  |  | Cn1ncc2c(N)nc3cnc(C(=O)N4CCOC[C@@H]4c4ccc(C(F)(F)F)cc4)cc3c21 [Example 371, (4-amino-1-methyl-1H-pyrazolo[4,3-c][1,7]naphthyridin-8-yl)((3S)-3-(4-(trifluoromethyl)phenyl)-4-morpholinyl)methanone] |
| 786 | > 10000 |  |  | CC1(C)OCc2c1c(N)nc1ccc(C(=O)N3CCOC[C@@H]3c3ccc(OC(F)(F)F)cc3)cc21 [Example 382, (4-amino-3,3-dimethyl-1H-furo[3,4-c]quinolin-8-yl)-[(3S)-3-[4-(trifluoromethoxy)phenyl]morpholin-4-yl]methanone] |
|  |  | 624 | 36400 | Nc1nc2cnc(C(=O)N3CCOC[C@@H]3c3ccc(OC(F)F)nc3)cc2c2c1COC2.Nc1nc2cnc(C(=O)N3CCOC[C@H]3c3ccc(OC(F)F)nc3)cc2c2c1COC2 [Example 394, (4-amino-1,3-dihydrofuro[3,4-c][1,7]naphthyridin-8-yl)((3R)-3-(6-(difluoromethoxy)-3-pyridinyl)-4-morpholinyl)methanone (4-amino-1,3-dihydrofuro[3,4-c][1,7]naphthyridin-8-yl)((3S)-3-(6-(difluoromethoxy)-3-pyridinyl)-4-morpholinyl)methanone] |
| 303 | 8240 |  |  | C[C@H]1OCc2c1c(N)nc1ccc(C(=O)N3CC(c4ccccc4)C4CCCC43)cc21 (stereo partly drawn) [Example 395, ((3R)-4-amino-3-methyl-1,3-dihydrofuro[3,4-c]quinolin-8-yl)(3-phenylhexahydrocyclopenta[b]pyrrol-1(2H)-yl)methanone] |
| 866 | 13300 |  |  | C[C@H]1OCc2c1c(N)nc1ccc(C(=O)N3CC(c4ccc(Cl)cc4)CC3C3CC3)cc21 (stereo partly drawn) [Example 396, ((3R)-4-amino-3-methyl-1,3-dihydrofuro[3,4-c]quinolin-8-yl)(4-(4-chlorophenyl)-2-cyclopropylpyrrolidin-1-yl)methanone] |
| 380 | 32000 |  |  | C[C@H]1OCc2c1c(N)nc1ccc(C(=O)N3CC(c4ccccc4)C4COCCC43)cc21 (stereo partly drawn) [Example 397, ((3R)-4-amino-3-methyl-1,3-dihydrofuro[3,4-c]quinolin-8-yl)(3-phenylhexahydropyrano[4,3-b]pyrrol-1(4H)-yl)methanone] |
| 609 | 13200 |  |  | C[C@H]1OCc2c1c(N)nc1ccc(C(=O)N3C[C@H](c4ccc(Cl)cc4)C[C@H]3C3CC3)cc21 [Example 398, ((3R)-4-amino-3-methyl-1,3-dihydrofuro[3,4-c]quinolin-8-yl)((2S,4S)-4-(4-chlorophenyl)-2-cyclopropyl-1-pyrrolidinyl)methanone] |
| 197 | 13000 |  |  | C[C@H]1OCc2c1c(N)nc1ccc(C(=O)N3C[C@@H](c4ccccc4)[C@@H]4COCC[C@@H]43)cc21 [Example 399, ((3R)-4-amino-3-methyl-1,3-dihydrofuro[3,4-c]quinolin-8-yl)((3R,3aS,7aS)-3-phenylhexahydropyrano[4,3-b]pyrrol-1(4H)-yl)methanone] |
| 159 | 7000 |  |  | C[C@H]1OCc2c1c(N)nc1ccc(C(=O)N3C[C@@H](c4ccccc4)[C@@H]4CCC[C@@H]43)cc21 [Example 400, ((3R)-4-amino-3-methyl-1,3-dihydrofuro[3,4-c]quinolin-8-yl)((3R,3aS,6aS)-3-phenylhexahydrocyclopenta[b]pyrrol-1(2H)-yl)methanone] |
